{"source": "patent US7491711B2", "about": "“Methods of treatment using 3-desoxy vitamin D3 analogs” (Roche Palo Alto LLC, priority 2001, dated 2009)", "key": {"[1]": {"test_system": "rat ovariectomy model (post menopausal osteopenia)", "experiment": "L5 bone density ex vivo (BMD, BMC), rat ovariectomy model", "format": "in vivo", "settings": "OVX rats", "procedure": "(§1) Comparison of the efficacy of Compound 7 to that of 1,25-dihydroxy vitamin D3 (i.e., VD3), was made using the standard animal model for post menopausal osteopenia, the rat ovariectomy model. Three month old rats weighing 285gm were ovariectomized (OVX), and then treated for 8 weeks beginning 1 week post OVX. Drugs were administered once/day orally in miglyol (medium chain triglyceride) vehicle. Blood and urine samples were collected at the 3 wk and 6 wk timepoint, and bone mineral density (BMD) was determined in vivo at 6 wk using Dual Energy X-ray Absorptiometry (Hologic QDR-4500™ Bone Scanner). At 8 weeks, the animals were sacrificed, and the lumbar vertebrae and femur bones removed for ex vivo BMD determination (Lunar PixiMus™ Bone Scanner) and biomechanical testing for strength. Data for each compound are reported in the accompanying tables for the highest safe doses."}, "[2]": {"test_system": "rat ovariectomy model (post menopausal osteopenia)", "experiment": "Urinary deoxypyridinolines (marker of bone resorption), rat ovariectomy model", "format": "in vivo", "settings": "OVX rats", "procedure": "as §1\n(§2) The doses being compared all gave 3 wk serum calcium levels of 9.3 mg/dl, and 6 wk levels of 9.8±0.1 mg/dl. At these doses, the urinary calcium output per 24 hr sample was the same for the 0.4 nmol/kg dose of VD3 and the 0.5 nmol/kg dose of Compound 7. […] These doses represent those expected to give maximal efficacy achievable safely, as higher doses of each compound are known to be hypercalcemic. […] Failure Load, the amount of force needed to fracture the L5 vertebra, was determined in axial compression testing."}, "[3]": {"experiment": "Urinary calcium in the rat ovariectomy model (safety)", "format": "in vivo", "settings": "OVX rats; for urinary calcium output per 24 hr sample, compared between the two substances: 0.4 nmol/kg dose of VD3 and 0.5 nmol/kg dose of Compound 7", "procedure": "as §1, §2"}, "[4]": {"test_system": "rat ovariectomy model (post menopausal osteopenia)", "experiment": "Bone mineral density in vivo (Dual Energy X-ray Absorptiometry), rat ovariectomy model", "settings": "OVX rats", "procedure": "as §1, §2"}, "[5]": {"test_system": "rat ovariectomy model (post menopausal osteopenia)", "experiment": "L5 vertebral body biomechanics (axial compression testing), rat ovariectomy model", "format": "in vivo", "settings": "OVX rats", "procedure": "as §1, §2"}, "[6]": {"experiment": "Serum calcium in the rat ovariectomy model (safety)", "format": "in vivo", "settings": "OVX rats", "procedure": "as §1, §2"}, "[7]": {"test_system": "women with postmenopausal osteoporosis", "settings": "cited from earlier work"}, "[8]": {"test_system": "patients commencing long term treatment with prednisone or prednisolone", "settings": "0.5 to 1.0 micrograms/day plus calcium 1000 mg/day, with or without intranasal calcitonin 400 IU/day; cited from earlier work"}, "[9]": {"settings": "Week 8, 0.5 nmol/kg once/day orally"}, "[10]": {"settings": "Week 3, 0.5 nmol/kg once/day orally"}, "[11]": {"settings": "Week 6, 0.5 nmol/kg once/day orally"}, "[12]": {"settings": "Week 8, 0.012 nmol/kg once/day orally"}, "[13]": {"settings": "Week 3, 0.012 nmol/kg once/day orally"}, "[14]": {"settings": "Week 3, 0.04 nmol/kg once/day orally"}, "[15]": {"settings": "Week 6, 0.012 nmol/kg once/day orally"}, "[16]": {"settings": "Week 6, 0.04 nmol/kg once/day orally"}}, "note": "Marks after values point to notes of the source that are not given here.", "data": [{"compound": "C=C1/C(=C\\C=C2/CCC[C@]3(C)[C@@H](C4(C/C=C/C(O)(C(F)(F)F)C(F)(F)F)CC4)CC[C@@H]23)CCC[C@@H]1O", "note": "[Compound 27]", "values": [{"measurement": "L5 Bone Density Ex Vivo, BMC, Mean", "setting": "[1]; [9]", "value": "0.039 ** g"}, {"measurement": "L5 Bone Density Ex Vivo, BMD, Mean", "setting": "[1]; [9]", "value": "0.112 ** g/cm^2"}, {"measurement": "Urinary deoxy-pyridinolines (marker of bone resorption), compared with VD3", "setting": "[2]; 6 weeks", "value": "significantly less"}, {"measurement": "URINARY D-PYD, Mean", "setting": "[2]; [10]", "value": "0.65 *+ nM/mM Creatinine"}, {"measurement": "URINARY D-PYD, Mean", "setting": "[2]; [11]", "value": "0.57 **+ nM/mM Creatinine"}, {"measurement": "urinary calcium output per 24 hr sample, compared between the two substances", "setting": "[3]", "value": "the same"}, {"measurement": "URINARY CALCIUM, Mean", "setting": "[3]; [10]", "value": "0.51 **+ MG/MMOL Creatineine/day"}, {"measurement": "URINARY CALCIUM, Mean", "setting": "[3]; [11]", "value": "0.72 **++ MG/MMOL Creatineine/day"}, {"measurement": "PERCENT BMD > OVX CONTROL in vivo, Distal Femur, Mean", "setting": "[4]; [11]", "value": "8.5 ** PERCENT"}, {"measurement": "PERCENT BMD > OVX CONTROL in vivo, L2-L4 Vertebrae, Mean", "setting": "[4]; [11]", "value": "10.3 ** PERCENT"}, {"measurement": "PERCENT BMD > OVX CONTROL in vivo, L5 vertebrae, Mean", "setting": "[4]; [11]", "value": "8.7 ** PERCENT"}, {"measurement": "PERCENT BMD > OVX CONTROL in vivo, Prox Femur, Mean", "setting": "[4]; [11]", "value": "5.7 ** PERCENT"}, {"measurement": "PERCENT BMD > OVX CONTROL in vivo, Whole Femur, Mean", "setting": "[4]; [11]", "value": "6.3 ** PERCENT"}, {"measurement": "BMD at all of the bone sites listed, compared with VD3", "setting": "[4]; doses which give equivalent serum calcium levels", "value": "significantly higher"}, {"measurement": "vertebral bone strength", "setting": "[5]; L5 vertebra", "value": "stronger vertebral bone"}, {"measurement": "L5 Vertebral Body BIOMECHANICS, Failure Load, Mean", "setting": "[5]; [9]", "value": "419 ** N"}, {"measurement": "Failure Load, force needed to fracture the L5 vertebra, compared with VD3", "setting": "[5]; axial compression testing, highest safe doses", "value": "Significantly more force was needed"}, {"measurement": "SERUM CALCIUM, Mean", "setting": "[6]; [10]", "value": 9.3, "unit": "ns mg/dl"}, {"measurement": "SERUM CALCIUM, Mean", "setting": "[6]; [11]", "value": "9.9 **+ mg/dl"}]}, {"compound": "C=C1/C(=C\\C=C2/CCC[C@]3(C)[C@@H]([C@H](C)CCCC(C)(C)O)CC[C@@H]23)C[C@@H](O)C[C@@H]1O", "note": "[VitD, 1,25-dihydroxy vitamin D3]", "values": [{"measurement": "L5 Bone Density Ex Vivo, BMC, Mean", "setting": "[1]; [12]", "value": 0.035, "unit": "ns g"}, {"measurement": "L5 Bone Density Ex Vivo, BMD, Mean", "setting": "[1]; [12]", "value": "0.103 ++ g/cm^2"}, {"measurement": "lower rate of new vertebral fractures compared with patients receiving elemental calcium 1000 mg/day", "setting": "[7]; mild to moderate disease, 0.25 microgram twice daily, after 3 years of treatment", "value": 3, "unit": "fold"}, {"measurement": "tolerability", "setting": "[7]; patients, overall", "value": "well tolerated"}, {"measurement": "URINARY D-PYD, Mean", "setting": "[2]; [13]", "value": "0.81 ++ nM/mM Creatinine"}, {"measurement": "URINARY D-PYD, Mean", "setting": "[2]; [14]", "value": "0.75 ++ nM/mM Creatinine"}, {"measurement": "URINARY D-PYD, Mean", "setting": "[2]; [15]", "value": "0.78 ++ nM/mM Creatinine"}, {"measurement": "URINARY D-PYD, Mean", "setting": "[2]; [16]", "value": "0.76 ++ nM/mM Creatinine"}, {"measurement": "urinary calcium output per 24 hr sample, compared between the two substances", "setting": "[3]", "value": "the same"}, {"measurement": "URINARY CALCIUM, Mean", "setting": "[3]; [13]", "value": "0.31 ** MG/MMOL Creatineine/day"}, {"measurement": "URINARY CALCIUM, Mean", "setting": "[3]; [14]", "value": "0.51 **+ MG/MMOL Creatineine/day"}, {"measurement": "URINARY CALCIUM, Mean", "setting": "[3]; [15]", "value": "0.43 ** MG/MMOL Creatineine/day"}, {"measurement": "URINARY CALCIUM, Mean", "setting": "[3]; [16]", "value": "0.71 **++ MG/MMOL Creatineine/day"}, {"measurement": "PERCENT BMD > OVX CONTROL in vivo, Distal Femur, Mean", "setting": "[4]; [15]", "value": "2.8 ++ PERCENT"}, {"measurement": "PERCENT BMD > OVX CONTROL in vivo, L2-L4 Vertebrae, Mean", "setting": "[4]; [15]", "value": "3.3 ++ PERCENT"}, {"measurement": "PERCENT BMD > OVX CONTROL in vivo, L5 vertebrae, Mean", "setting": "[4]; [15]", "value": "2.7 ++ PERCENT"}, {"measurement": "PERCENT BMD > OVX CONTROL in vivo, Prox Femur, Mean", "setting": "[4]; [15]", "value": 3.5, "unit": "ns PERCENT"}, {"measurement": "PERCENT BMD > OVX CONTROL in vivo, Whole Femur, Mean", "setting": "[4]; [15]", "value": "3.3 + PERCENT"}, {"measurement": "PERCENT BMD > OVX CONTROL in vivo, Distal Femur, Mean", "setting": "[4]; [16]", "value": "2.8 ++ PERCENT"}, {"measurement": "PERCENT BMD > OVX CONTROL in vivo, L2-L4 Vertebrae, Mean", "setting": "[4]; [16]", "value": "5.4 * PERCENT"}, {"measurement": "PERCENT BMD > OVX CONTROL in vivo, L5 vertebrae, Mean", "setting": "[4]; [16]", "value": "4.9 ++ PERCENT"}, {"measurement": "PERCENT BMD > OVX CONTROL in vivo, Prox Femur, Mean", "setting": "[4]; [16]", "value": "0.7 ++ PERCENT"}, {"measurement": "PERCENT BMD > OVX CONTROL in vivo, Whole Femur, Mean", "setting": "[4]; [16]", "value": "1.9 ++ PERCENT"}, {"measurement": "L5 Vertebral Body BIOMECHANICS, Failure Load, Mean", "setting": "[5]; [12]", "value": "342 * N"}, {"measurement": "SERUM CALCIUM, Mean", "setting": "[6]; [13]", "value": 9.3, "unit": "nd mg/dl"}, {"measurement": "SERUM CALCIUM, Mean", "setting": "[6]; [14]", "value": 9.3, "unit": "ns mg/dl"}, {"measurement": "SERUM CALCIUM, Mean", "setting": "[6]; [15]", "value": "9.8 **+ mg/dl"}, {"measurement": "SERUM CALCIUM, Mean", "setting": "[6]; [16]", "value": "9.7 ** mg/dl"}, {"measurement": "steroid-induced bone loss", "setting": "[8]", "value": "prevented steroid-induced bone loss"}]}]}
